Assay results reported in patent US20230123334A1, “AMINO LIPID COMPOUND, PREPARATION METHOD THEREFOR, AND APPLICATION THEREOF” (SHENZHEN SHENXIN BIOTECHNOLOGY CO., LTD., priority 2020, published 2023).

The compounds below were run on HEK293 cells (assay: Preliminary screening as mRNA vectors, EGFP mRNA transfection of HEK293 cells). Settings: EGFP mRNA 50 ng per well, 96-well plates; percentage of GFP fluorescent cells relative to total number of cells (Hoechst).
Format: cell-based
Procedure: Cell line: HEK293 cells (ATCC CRL-1573™)
Medium: DMEM supplemented with 10% fetal bovine serum (Invitrogen)
Screening: cell transfection on 96-well plates
Detection (readout): percentage of the number of GFP fluorescent cells relative to the total number of cells (the total number of cells was determined using nucleus dye Hoechst). Lipofectamine2000 (Invitrogen) was used as the positive control.
Method: the experimental method was basically the same with Example 4, and the mass of EGFP mRNA (TriLink) for transfection was 50 ng per well.

Compared with `CCCCCCCCCCCCCCCCNc1nc(NCCN2CCOCC2)nc(SCCCCCCCCCC)n1` [Compound D2S10N16], `CCCCCCCCCCCCCCCNc1nc(NCCN2CCOCC2)nc(SCCCCCCCCCCC)n1` [Compound D2S11N15] is higher in “Absolute mRNA transfection efficiency in HEK293 cells” value (“Absolute mRNA transfection efficiency” below): 0.6% for the first, 2.8% for the second.

Going from `CCCCCCCCCCCCCCCCCCNc1nc(NCCN2CCOCC2)nc(SCCCCCCCCCC)n1` [Compound D2S10N18] to `CCCCCCCCCCCCCCCCNc1nc(NCCN2CCOCC2)nc(SCCCCCCCCCCCC)n1` [Compound D2S12N16], the “Absolute mRNA transfection efficiency” value rises from 0.0% to 0.8%.

First: CCCCCCCCCCCSc1nc(NCCCCCC)nc(NCCN2CCOCC2)n1 [Compound D2S11N6]
Second: CCCCCCCCCCCSc1nc(NCCCCCCC)nc(NCCN2CCOCC2)n1 [Compound D2S11N7]
The “Absolute mRNA transfection efficiency” value of the first is lower: 5.4% for the first, 8.5% for the second.

Compared with `CCCCCCCCCCCSc1nc(NCCCCCCCC)nc(NCCN2CCOCC2)n1` [Compound D2S11N8], `CCCCCCCCCCCCSc1nc(NCCCCCCC)nc(NCCN2CCOCC2)n1` [Compound D2S12N7] is lower in “Absolute mRNA transfection efficiency” value: 2.4% for the first, 0.4% for the second.

Compared with `CCCCCCCCCCCSc1nc(NCCCCCCCCC)nc(NCCN2CCOCC2)n1` [Compound D2S11N9], `CCCCCCCCCCCCSc1nc(NCCCCCCCC)nc(NCCN2CCOCC2)n1` [Compound D2S12N8] is lower in “Absolute mRNA transfection efficiency” value: 2.5% for the first, 1.6% for the second.

First: CCCCCCCCCCCNc1nc(NCCN2CCOCC2)nc(SCCCCCCCCCCC)n1 [Compound D2S11N11]
Second: CCCCCCCCCCCCCCSc1nc(NCCCCCCCC)nc(NCCN2CCOCC2)n1 [Compound D2S14N8]
The “Absolute mRNA transfection efficiency” value of the first is lower: 0.6% for the first, 3.7% for the second.

First: CCCCCCCCCCCCNc1nc(NCCN2CCOCC2)nc(SCCCCCCCCCCC)n1 [Compound D2S11N12]
Second: CCCCCCCCCCCCSc1nc(NCCCCCCCCCCC)nc(NCCN2CCOCC2)n1 [Compound D2S12N11]
The “Absolute mRNA transfection efficiency” value of the first is higher: 3.1% for the first, 0.3% for the second.

Going from `CCCCCCCCCCCCCNc1nc(NCCN2CCOCC2)nc(SCCCCCCCCCCC)n1` [Compound D2S11N13] to `CCCCCCCCCCCCNc1nc(NCCN2CCOCC2)nc(SCCCCCCCCCCCC)n1` [Compound D2S12N12], the “Absolute mRNA transfection efficiency” value falls from 1.9% to 0.0%.

First: CCCCCCCCCCCCCCCCNc1nc(NCCN2CCOCC2)nc(SCCCCCCCCCCC)n1 [Compound D2S11N16]
Second: CCCCCCCCCCCCCCCNc1nc(NCCN2CCOCC2)nc(SCCCCCCCCCCCC)n1 [Compound D2S12N15]
The “Absolute mRNA transfection efficiency” value of the first is higher: 1.1% for the first, 0.0% for the second.

`CCCCCCCCCCCCCCCCCCNc1nc(NCCN2CCOCC2)nc(SCCCCCCCCCCC)n1` [Compound D2S11N18] and `CCCCCCCCCCCCCCCNc1nc(NCCN2CCOCC2)nc(SCCCCCCCCCCCCCC)n1` [Compound D2S14N15] are the same in “Absolute mRNA transfection efficiency” value: 0.0% for the first, 0.0% for the second.

Going from `CCCCCCCCCCCCSc1nc(NCCCCCC)nc(NCCN2CCOCC2)n1` [Compound D2S12N6] to `CCCCCCCCCCCCCCSc1nc(NCCCCCC)nc(NCCN2CCOCC2)n1` [Compound D2S14N6], the “Absolute mRNA transfection efficiency” value rises from 0.0% to 8.8%.

First: CCCCCCCCCCCCSc1nc(NCCCCCCCCC)nc(NCCN2CCOCC2)n1 [Compound D2S12N9]
Second: CCCCCCCCCCCCCCSc1nc(NCCCCCCC)nc(NCCN2CCOCC2)n1 [Compound D2S14N7]
The “Absolute mRNA transfection efficiency” value of the first is lower: 1.1% for the first, 4.5% for the second.

First: CCCCCCCCCCCCCNc1nc(NCCN2CCOCC2)nc(SCCCCCCCCCCCC)n1 [Compound D2S12N13]
Second: CCCCCCCCCCCCCCSc1nc(NCCCCCCCCCCC)nc(NCCN2CCOCC2)n1 [Compound D2S14N11]
The “Absolute mRNA transfection efficiency” value of the first is lower: 0.0% for the first, 3.5% for the second.

Compared with `CCCCCCCCCCCCCCCCCCNc1nc(NCCN2CCOCC2)nc(SCCCCCCCCCCCC)n1` [Compound D2S12N18], `CCCCCCCCCCCCCCCCNc1nc(NCCN2CCOCC2)nc(SCCCCCCCCCCCCCC)n1` [Compound D2S14N16] is lower in “Absolute mRNA transfection efficiency” value: 0.8% for the first, 0.1% for the second.

First: CCCCCCCCCCCCCCSc1nc(NCCCCCCCCC)nc(NCCN2CCOCC2)n1 [Compound D2S14N9]
Second: CCCCCCCCCCCCCCCSc1nc(NCCCCCCCC)nc(NCCN2CCOCC2)n1 [Compound D2S15N8]
The “Absolute mRNA transfection efficiency” value of the first is higher: 7.4% for the first, 2.2% for the second.

Compared with `CCCCCCCCCCCCCCSc1nc(NCCCCCCCCCCCC)nc(NCCN2CCOCC2)n1` [Compound D2S14N12], `CCCCCCCCCCCCCCCSc1nc(NCCCCCCCCCCC)nc(NCCN2CCOCC2)n1` [Compound D2S15N11] is higher in “Absolute mRNA transfection efficiency” value: 2.1% for the first, 3.3% for the second.

Going from `CCCCCCCCCCCCCCSc1nc(NCCCCCCCCCCCCC)nc(NCCN2CCOCC2)n1` [Compound D2S14N13] to `CCCCCCCCCCCCCCCSc1nc(NCCCCCCCCCCCC)nc(NCCN2CCOCC2)n1` [Compound D2S15N12], the “Absolute mRNA transfection efficiency” value falls from 1.1% to 0.1%.

First: CCCCCCCCCCCCCCCCCCNc1nc(NCCN2CCOCC2)nc(SCCCCCCCCCCCCCC)n1 [Compound D2S14N18]
Second: CCCCCCCCCCCCCCCCCCNc1nc(NCCN2CCOCC2)nc(SCCCCCCCCCCCCCCC)n1 [Compound D2S15N18]
The “Absolute mRNA transfection efficiency” value of the first is lower: 0.1% for the first, 0.3% for the second.

Going from `CCCCCCCCCCCCCCCSc1nc(NCCCCCC)nc(NCCN2CCOCC2)n1` [Compound D2S15N6] to `CCCCCCCCCCCCCCCSc1nc(NCCCCCCC)nc(NCCN2CCOCC2)n1` [Compound D2S15N7], the “Absolute mRNA transfection efficiency” value falls from 4.9% to 4.5%.

First: CCCCCCCCCCCCCCCSc1nc(NCCCCCCCCC)nc(NCCN2CCOCC2)n1 [Compound D2S15N9]
Second: CCCCCCCCCCCCCCCCSc1nc(NCCCCCCCC)nc(NCCN2CCOCC2)n1 [Compound D2S16N8]
The “Absolute mRNA transfection efficiency” value of the first is lower: 1.1% for the first, 19.1% for the second.

Going from `CCCCCCCCCCCCCCCSc1nc(NCCCCCCCCCCCCC)nc(NCCN2CCOCC2)n1` [Compound D2S15N13] to `CCCCCCCCCCCCCCCCSc1nc(NCCCCCCCCCCCC)nc(NCCN2CCOCC2)n1` [Compound D2S16N12], the “Absolute mRNA transfection efficiency” value rises from 0.1% to 1.2%.

First: CCCCCCCCCCCCCCCNc1nc(NCCN2CCOCC2)nc(SCCCCCCCCCCCCCCC)n1 [Compound D2S15N15]
Second: CCCCCCCCCCCCCCCCNc1nc(NCCN2CCOCC2)nc(SCCCCCCCCCCCCCCC)n1 [Compound D2S15N16]
The “Absolute mRNA transfection efficiency” value of the first is lower: 0.2% for the first, 1.4% for the second.

Going from `CCCCCCCCCCCCCCCCSc1nc(NCCCCCC)nc(NCCN2CCOCC2)n1` [Compound D2S16N6] to `CCCCCCCCCCCCCCCCSc1nc(NCCCCCCC)nc(NCCN2CCOCC2)n1` [Compound D2S16N7], the “Absolute mRNA transfection efficiency” value falls from 23.6% to 10.0%.

Compared with `CCCCCCCCCCCCCCCCSc1nc(NCCCCCCCCC)nc(NCCN2CCOCC2)n1` [Compound D2S16N9], `CCCCCCCCCCCCCCCCSc1nc(NCCCCCCCCCCC)nc(NCCN2CCOCC2)n1` [Compound D2S16N11] is lower in “Absolute mRNA transfection efficiency” value: 7.2% for the first, 4.1% for the second.
